Laboratory results from publication PMC12226733, “Evolution of iGluR ligand specificity, polyamine regulation, and ion selectivity inferred from a placozoan epsilon receptor” (Communications Biology, 2025).
Numbering of substitutions follows the chain as printed. Where two headings read alike, the source gives them in different places.

Assays:
Assay type in all cases: cell-based
GluE1αA S642N = biological target: T1, GluE1αA S642N (Trichoplax adhaerens, UniProt B3SAW0, S167N); conditions: for normalized conductance (G-V, Figure 5g), Avg: Na vs Na; for I-V current, Na vs Na, Avg of recordings: Figure 5b
T1 sequence (B3SAW0 1-341 S167N): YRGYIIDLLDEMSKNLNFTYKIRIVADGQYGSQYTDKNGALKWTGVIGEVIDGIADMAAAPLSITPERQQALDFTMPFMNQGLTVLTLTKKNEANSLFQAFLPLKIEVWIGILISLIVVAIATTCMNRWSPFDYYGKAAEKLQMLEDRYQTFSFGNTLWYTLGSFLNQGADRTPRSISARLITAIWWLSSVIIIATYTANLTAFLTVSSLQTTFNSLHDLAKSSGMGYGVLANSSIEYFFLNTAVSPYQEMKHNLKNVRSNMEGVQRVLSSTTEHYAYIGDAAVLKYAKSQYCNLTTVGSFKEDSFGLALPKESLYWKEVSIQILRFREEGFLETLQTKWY

[1] = biological target: T2, human GluA2 receptor (wildtype) (Homo sapiens, UniProt P42262); conditions: for normalized conductance (G-V, Figure 5g), Avg: Na vs Na
T2 construct: host or cells: CHO-K1
T2 sequence (P42262 25-883): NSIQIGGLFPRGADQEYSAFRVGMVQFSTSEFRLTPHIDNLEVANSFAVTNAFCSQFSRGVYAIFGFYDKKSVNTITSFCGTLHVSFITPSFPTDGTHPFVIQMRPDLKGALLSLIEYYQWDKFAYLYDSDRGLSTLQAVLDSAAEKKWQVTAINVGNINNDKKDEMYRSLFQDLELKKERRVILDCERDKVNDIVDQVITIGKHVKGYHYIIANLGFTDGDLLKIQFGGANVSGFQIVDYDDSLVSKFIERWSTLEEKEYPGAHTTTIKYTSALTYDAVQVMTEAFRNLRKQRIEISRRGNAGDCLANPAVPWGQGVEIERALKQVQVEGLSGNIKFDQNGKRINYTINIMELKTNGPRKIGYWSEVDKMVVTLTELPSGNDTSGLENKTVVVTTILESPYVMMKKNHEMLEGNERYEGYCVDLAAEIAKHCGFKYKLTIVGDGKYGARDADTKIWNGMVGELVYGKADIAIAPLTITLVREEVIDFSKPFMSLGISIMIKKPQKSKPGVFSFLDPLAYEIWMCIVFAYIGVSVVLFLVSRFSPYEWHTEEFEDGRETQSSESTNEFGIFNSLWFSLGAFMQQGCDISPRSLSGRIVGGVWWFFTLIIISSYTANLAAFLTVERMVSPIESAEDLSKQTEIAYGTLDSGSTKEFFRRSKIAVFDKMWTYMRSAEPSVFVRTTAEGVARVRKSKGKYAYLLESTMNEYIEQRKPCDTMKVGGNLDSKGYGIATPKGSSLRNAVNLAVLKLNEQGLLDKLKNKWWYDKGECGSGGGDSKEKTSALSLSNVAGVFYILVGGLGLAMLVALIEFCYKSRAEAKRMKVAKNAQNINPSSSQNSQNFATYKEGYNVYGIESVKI

GluE1αA S642Q = biological target: T3, GluE1αA S642Q (Trichoplax adhaerens, UniProt B3SAW0, S167Q); conditions: […]; for normalized conductance (G-V, Figure 5g), Avg: Na vs Na; for I-V current, Na vs Na, Avg of recordings: Figure 5b
T3 sequence (B3SAW0 1-341 S167Q): T1 sequence (B3SAW0 1-341 S167N) with N167Q

GluA2 Q607S = biological target: T4, GluA2 Q607S (Homo sapiens, UniProt P42262, Q607S); conditions: GluA2 Q-S; for normalized conductance (G-V, Figure 5g), Avg: Na vs Na; for I-V current, Na vs Na, Avg of recordings: Figure 5b
T4 construct: host or cells: HEK-293T/17
T4 sequence (P42262 25-883 Q607S): as the sequence (P42262 25-883) above, with Q583S counted along it

[Na+] [Na]
pNa/pNa (GluE1αA S642N): 1.08 | normalized conductance (G-V, Figure 5g), Avg (GluE1αA S642N; Vm 0.00): 0.09 | normalized conductance (G-V, Figure 5g), Avg (GluE1αA S642N; Vm 20.00): 0.06 | normalized conductance (G-V, Figure 5g), Avg (GluE1αA S642N; Vm 40.00): 0.14 | normalized conductance (G-V, Figure 5g), Avg (GluE1αA S642N; Vm 60.00): 0.27 | normalized conductance (G-V, Figure 5g), Avg (GluE1αA S642N; Vm 80.00): 0.34 | normalized conductance (G-V, Figure 5g), Avg (GluE1αA S642N; Vm -20.00): 0.24 | normalized conductance (G-V, Figure 5g), Avg (GluE1αA S642N; Vm -40.00): 0.49 | normalized conductance (G-V, Figure 5g), Avg (GluE1αA S642N; Vm -60.00): 0.76 | normalized conductance (G-V, Figure 5g), Avg (GluE1αA S642N; Vm -80.00): 1.00 | I-V current, Na vs Na, Avg of recordings (GluE1αA S642N; Vm 0.00): -0.00109 | I-V current, Na vs Na, Avg of recordings (GluE1αA S642N; Vm 20.00): 0.0153 | I-V current, Na vs Na, Avg of recordings (GluE1αA S642N; Vm 40.00): 0.04 | I-V current, Na vs Na, Avg of recordings (GluE1αA S642N; Vm 60.00): 0.11 | I-V current, Na vs Na, Avg of recordings (GluE1αA S642N; Vm 80.00): 0.22 | I-V current, Na vs Na, Avg of recordings (GluE1αA S642N; Vm -20.00): -0.0458 | I-V current, Na vs Na, Avg of recordings (GluE1αA S642N; Vm -40.00): -0.16 | I-V current, Na vs Na, Avg of recordings (GluE1αA S642N; Vm -60.00): -0.37 | I-V current, Na vs Na, Avg of recordings (GluE1αA S642N; Vm -80.00): -0.64 | normalized conductance (G-V, Figure 5g), Avg ([1]; Vm 0.00): 0.0219 | normalized conductance (G-V, Figure 5g), Avg ([1]; Vm 20.00): 0.0142 | normalized conductance (G-V, Figure 5g), Avg ([1]; Vm 40.00): 0.0218 | normalized conductance (G-V, Figure 5g), Avg ([1]; Vm 60.00): 0.11 | normalized conductance (G-V, Figure 5g), Avg ([1]; Vm 80.00): 0.29 | normalized conductance (G-V, Figure 5g), Avg ([1]; Vm -20.00): 0.10 | normalized conductance (G-V, Figure 5g), Avg ([1]; Vm -40.00): 0.41 | normalized conductance (G-V, Figure 5g), Avg ([1]; Vm -60.00): 0.86 | normalized conductance (G-V, Figure 5g), Avg ([1]; Vm -80.00): 1.00 | I-V current, Na vs Na, Avg of recordings ([1]; Vm 0.00, Figure 5b): -0.00449 | I-V current, Na vs Na, Avg of recordings ([1]; Vm 20.00, Figure 5b): 0.00351 | I-V current, Na vs Na, Avg of recordings ([1]; Vm 40.00, Figure 5b): 0.00517 | I-V current, Na vs Na, Avg of recordings ([1]; Vm 60.00, Figure 5b): 0.02 | I-V current, Na vs Na, Avg of recordings ([1]; Vm 80.00, Figure 5b): 0.08 | I-V current, Na vs Na, Avg of recordings ([1]; Vm -20.00, Figure 5b): -0.0114 | I-V current, Na vs Na, Avg of recordings ([1]; Vm -40.00, Figure 5b): -0.0751 | I-V current, Na vs Na, Avg of recordings ([1]; Vm -60.00, Figure 5b): -0.30 | I-V current, Na vs Na, Avg of recordings ([1]; Vm -80.00, Figure 5b): -0.69 | normalized conductance (G-V, Figure 5g), Avg (GluE1αA S642Q; Vm 0.00): 0.20 | normalized conductance (G-V, Figure 5g), Avg (GluE1αA S642Q; Vm 20.00): 0.25 | normalized conductance (G-V, Figure 5g), Avg (GluE1αA S642Q; Vm 40.00): 0.52 | normalized conductance (G-V, Figure 5g), Avg (GluE1αA S642Q; Vm 60.00): 0.72 | normalized conductance (G-V, Figure 5g), Avg (GluE1αA S642Q; Vm 80.00): 0.79 | normalized conductance (G-V, Figure 5g), Avg (GluE1αA S642Q; Vm -20.00): 0.51 | normalized conductance (G-V, Figure 5g), Avg (GluE1αA S642Q; Vm -40.00): 0.84 | normalized conductance (G-V, Figure 5g), Avg (GluE1αA S642Q; Vm -60.00): 0.93 | normalized conductance (G-V, Figure 5g), Avg (GluE1αA S642Q; Vm -80.00): 1.00 | I-V current, Na vs Na, Avg of recordings (GluE1αA S642Q; Vm 0.00): 0.0017 | I-V current, Na vs Na, Avg of recordings (GluE1αA S642Q; Vm 20.00): 0.0327 | I-V current, Na vs Na, Avg of recordings (GluE1αA S642Q; Vm 40.00): 0.13 | I-V current, Na vs Na, Avg of recordings (GluE1αA S642Q; Vm 60.00): 0.30 | I-V current, Na vs Na, Avg of recordings (GluE1αA S642Q; Vm 80.00): 0.51 | I-V current, Na vs Na, Avg of recordings (GluE1αA S642Q; Vm -20.00): -0.07 | I-V current, Na vs Na, Avg of recordings (GluE1αA S642Q; Vm -40.00): -0.26 | I-V current, Na vs Na, Avg of recordings (GluE1αA S642Q; Vm -60.00): -0.50 | I-V current, Na vs Na, Avg of recordings (GluE1αA S642Q; Vm -80.00): -0.73 | normalized conductance (G-V, Figure 5g), Avg (GluA2 Q607S; Vm 0.00): 0.29 | normalized conductance (G-V, Figure 5g), Avg (GluA2 Q607S; Vm 20.00): 0.39 | normalized conductance (G-V, Figure 5g), Avg (GluA2 Q607S; Vm 40.00): 0.47 | normalized conductance (G-V, Figure 5g), Avg (GluA2 Q607S; Vm 60.00): 0.53 | normalized conductance (G-V, Figure 5g), Avg (GluA2 Q607S; Vm 80.00): 0.52 | normalized conductance (G-V, Figure 5g), Avg (GluA2 Q607S; Vm -20.00): 0.28 | normalized conductance (G-V, Figure 5g), Avg (GluA2 Q607S; Vm -40.00): 0.39 | normalized conductance (G-V, Figure 5g), Avg (GluA2 Q607S; Vm -60.00): 0.63 | normalized conductance (G-V, Figure 5g), Avg (GluA2 Q607S; Vm -80.00): 1.00 | I-V current, Na vs Na, Avg of recordings (GluA2 Q607S; Vm 0.00): -0.0234 | I-V current, Na vs Na, Avg of recordings (GluA2 Q607S; Vm 20.00): 0.09 | I-V current, Na vs Na, Avg of recordings (GluA2 Q607S; Vm 40.00): 0.23 | I-V current, Na vs Na, Avg of recordings (GluA2 Q607S; Vm 60.00): 0.41 | I-V current, Na vs Na, Avg of recordings (GluA2 Q607S; Vm 80.00): 0.57 | I-V current, Na vs Na, Avg of recordings (GluA2 Q607S; Vm -20.00): -0.10 | I-V current, Na vs Na, Avg of recordings (GluA2 Q607S; Vm -40.00): -0.20 | I-V current, Na vs Na, Avg of recordings (GluA2 Q607S; Vm -60.00): -0.35 | I-V current, Na vs Na, Avg of recordings (GluA2 Q607S; Vm -80.00): -0.61
